The values below come from patent US9775844B2, “Heterocyclic compounds and uses thereof” (Infinity Pharmaceuticals, Inc., priority 2014, dated 2017).

The target of test [1] is PI3K-γ in RAW264.7 macrophages (Mus musculus (Mouse), UniProt Q9JHG7). The test can be described thus: Raw264.7 p110 γ assay (PI3K-γ selective cellular assay, C5a-stimulated phospho-AKT). Particulars: phospho-AKT; read-out: Raw264.7 p110 γ assay IC50. It is filed as cell-based.
From the text: Briefly, serum-starved RAW264.7 cells are stimulated with a known GPCR agonist C5a. […] Cells can be treated with test compounds prior to, simultaneously with, or subsequent to the stimulation by C5a. RAW 264.7 cells respond to the complement component fragment C5a through activation of the C5a receptor, and the C5a receptor activates macrophages and induces cell migration.
The target in test [2] is PI3K α (Homo sapiens (Human), UniProt P42336). Kind of test: PI3-Kinase Promega ADP-Glo Max assay. It is filed as biochemical. (ADP-Glo turns the ADP formed in a reaction into a luminescent signal.)
Sequence of PI3K α (P42336 whole entry): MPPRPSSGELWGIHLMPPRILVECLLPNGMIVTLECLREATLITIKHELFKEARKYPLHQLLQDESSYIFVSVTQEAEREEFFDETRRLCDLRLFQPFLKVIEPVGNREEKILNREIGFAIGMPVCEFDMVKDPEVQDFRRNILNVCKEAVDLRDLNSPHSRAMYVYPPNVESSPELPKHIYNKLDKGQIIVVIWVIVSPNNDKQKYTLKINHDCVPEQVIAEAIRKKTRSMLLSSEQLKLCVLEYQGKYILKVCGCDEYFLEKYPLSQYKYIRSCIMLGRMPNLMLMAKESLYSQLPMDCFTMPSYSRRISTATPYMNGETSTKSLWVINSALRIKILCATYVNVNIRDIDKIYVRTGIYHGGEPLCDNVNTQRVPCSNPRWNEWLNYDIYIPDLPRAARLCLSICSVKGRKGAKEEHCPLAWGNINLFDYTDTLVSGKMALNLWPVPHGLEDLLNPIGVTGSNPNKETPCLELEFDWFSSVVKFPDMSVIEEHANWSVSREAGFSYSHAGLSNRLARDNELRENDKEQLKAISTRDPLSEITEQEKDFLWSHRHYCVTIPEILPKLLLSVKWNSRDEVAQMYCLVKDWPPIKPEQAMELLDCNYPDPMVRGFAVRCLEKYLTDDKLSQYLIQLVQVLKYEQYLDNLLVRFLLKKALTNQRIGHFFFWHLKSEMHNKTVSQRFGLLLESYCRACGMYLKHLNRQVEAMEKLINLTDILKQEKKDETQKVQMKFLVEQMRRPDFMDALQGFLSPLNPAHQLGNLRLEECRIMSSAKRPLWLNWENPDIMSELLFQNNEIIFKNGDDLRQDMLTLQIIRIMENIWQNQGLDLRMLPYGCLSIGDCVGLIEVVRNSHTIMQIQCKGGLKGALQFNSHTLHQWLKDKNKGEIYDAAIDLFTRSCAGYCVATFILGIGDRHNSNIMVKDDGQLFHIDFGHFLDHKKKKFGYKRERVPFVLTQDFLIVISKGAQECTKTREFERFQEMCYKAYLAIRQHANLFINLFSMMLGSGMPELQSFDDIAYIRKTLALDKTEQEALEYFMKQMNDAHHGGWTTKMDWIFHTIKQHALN
Sequence of PI3K α (P27986 whole entry partner): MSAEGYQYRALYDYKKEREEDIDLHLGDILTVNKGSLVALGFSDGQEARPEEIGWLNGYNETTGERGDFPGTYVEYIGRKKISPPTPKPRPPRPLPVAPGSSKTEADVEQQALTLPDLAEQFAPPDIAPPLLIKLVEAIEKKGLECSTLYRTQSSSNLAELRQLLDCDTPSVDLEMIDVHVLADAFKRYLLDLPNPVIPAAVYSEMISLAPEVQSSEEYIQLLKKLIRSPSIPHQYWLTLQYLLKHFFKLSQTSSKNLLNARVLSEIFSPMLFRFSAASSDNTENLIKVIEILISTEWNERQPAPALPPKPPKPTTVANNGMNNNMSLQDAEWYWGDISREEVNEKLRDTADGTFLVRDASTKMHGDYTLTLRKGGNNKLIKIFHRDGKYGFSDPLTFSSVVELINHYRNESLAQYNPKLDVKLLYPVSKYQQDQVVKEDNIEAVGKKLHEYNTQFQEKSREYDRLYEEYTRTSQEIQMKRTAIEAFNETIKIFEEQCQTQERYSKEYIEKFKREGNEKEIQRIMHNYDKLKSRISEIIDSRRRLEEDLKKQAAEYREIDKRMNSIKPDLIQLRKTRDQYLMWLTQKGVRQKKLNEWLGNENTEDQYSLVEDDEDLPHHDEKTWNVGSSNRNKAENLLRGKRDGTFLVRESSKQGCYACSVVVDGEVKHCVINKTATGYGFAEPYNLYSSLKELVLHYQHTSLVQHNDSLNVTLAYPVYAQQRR
Test [3] concerns the target PI3K β (Homo sapiens (Human), UniProt P42338). The test can be described thus: PI3-Kinase Promega ADP-Glo Max assay. It is filed as biochemical.
Test [4] has as its target PI3K δ (Homo sapiens (Human), UniProt O00329). Kind of test: PI3-Kinase Promega ADP-Glo Max assay. It is filed as biochemical.
Method: (§1) Promega ADP-Glo Max assay kit (Cat. No. V7002) was utilized to determine IC50 values for α, β, δ and γ isoforms of human Class I PI3 kinases (Millipore). […] Reactions were incubated at room temperature for 2 hours followed by addition of 25 uL of stop solution. After a 40-minute incubation at room temperature, 50 uL of Promega detection mix was added followed by incubation for 1 hour at room temperature. Plates were then read on Envision plate reader in lunimescence mode. Data was converted to % inhibition using the following equation below:
(§2) [formula] where S is the sample luminescence, Pos is a positive control without added PI3K, Neg is the negative control without added compound. Data was then plotted as % inhibition vs compound concentration.
For test [5], the target named is PI3K γ (Homo sapiens (Human), UniProt P48736). The test can be described thus: PI3-Kinase Promega ADP-Glo Max assay. It is filed as biochemical.
Sequence of PI3K γ (P48736 whole entry): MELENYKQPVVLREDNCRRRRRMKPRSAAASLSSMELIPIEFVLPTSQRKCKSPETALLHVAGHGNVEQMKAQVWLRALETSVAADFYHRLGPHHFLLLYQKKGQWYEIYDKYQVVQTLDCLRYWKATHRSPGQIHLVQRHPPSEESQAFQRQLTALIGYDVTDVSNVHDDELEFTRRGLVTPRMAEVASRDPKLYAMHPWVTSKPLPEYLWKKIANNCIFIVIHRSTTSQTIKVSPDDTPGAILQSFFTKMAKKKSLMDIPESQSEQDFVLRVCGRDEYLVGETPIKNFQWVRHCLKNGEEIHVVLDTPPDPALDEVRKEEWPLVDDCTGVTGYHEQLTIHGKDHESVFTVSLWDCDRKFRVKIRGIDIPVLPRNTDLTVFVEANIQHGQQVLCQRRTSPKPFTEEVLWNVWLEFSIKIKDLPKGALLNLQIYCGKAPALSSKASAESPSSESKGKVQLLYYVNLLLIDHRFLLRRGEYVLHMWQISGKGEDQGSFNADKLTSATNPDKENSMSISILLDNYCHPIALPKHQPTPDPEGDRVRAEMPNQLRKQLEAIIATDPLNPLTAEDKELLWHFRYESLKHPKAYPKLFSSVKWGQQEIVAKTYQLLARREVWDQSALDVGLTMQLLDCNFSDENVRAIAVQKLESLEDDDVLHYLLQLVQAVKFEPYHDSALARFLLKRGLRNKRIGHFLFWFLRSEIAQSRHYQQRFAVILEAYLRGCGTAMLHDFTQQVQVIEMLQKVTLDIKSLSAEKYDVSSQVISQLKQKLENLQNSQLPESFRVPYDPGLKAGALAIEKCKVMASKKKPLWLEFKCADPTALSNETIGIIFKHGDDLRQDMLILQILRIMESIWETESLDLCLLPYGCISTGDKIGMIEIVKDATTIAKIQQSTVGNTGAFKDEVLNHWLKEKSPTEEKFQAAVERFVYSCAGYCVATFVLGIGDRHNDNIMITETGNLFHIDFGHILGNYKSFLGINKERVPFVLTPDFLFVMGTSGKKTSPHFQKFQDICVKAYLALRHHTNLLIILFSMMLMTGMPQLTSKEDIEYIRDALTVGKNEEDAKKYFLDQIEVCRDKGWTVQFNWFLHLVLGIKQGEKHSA
Method: as §1, §2

Sequence of PI3K β (P42338 whole entry): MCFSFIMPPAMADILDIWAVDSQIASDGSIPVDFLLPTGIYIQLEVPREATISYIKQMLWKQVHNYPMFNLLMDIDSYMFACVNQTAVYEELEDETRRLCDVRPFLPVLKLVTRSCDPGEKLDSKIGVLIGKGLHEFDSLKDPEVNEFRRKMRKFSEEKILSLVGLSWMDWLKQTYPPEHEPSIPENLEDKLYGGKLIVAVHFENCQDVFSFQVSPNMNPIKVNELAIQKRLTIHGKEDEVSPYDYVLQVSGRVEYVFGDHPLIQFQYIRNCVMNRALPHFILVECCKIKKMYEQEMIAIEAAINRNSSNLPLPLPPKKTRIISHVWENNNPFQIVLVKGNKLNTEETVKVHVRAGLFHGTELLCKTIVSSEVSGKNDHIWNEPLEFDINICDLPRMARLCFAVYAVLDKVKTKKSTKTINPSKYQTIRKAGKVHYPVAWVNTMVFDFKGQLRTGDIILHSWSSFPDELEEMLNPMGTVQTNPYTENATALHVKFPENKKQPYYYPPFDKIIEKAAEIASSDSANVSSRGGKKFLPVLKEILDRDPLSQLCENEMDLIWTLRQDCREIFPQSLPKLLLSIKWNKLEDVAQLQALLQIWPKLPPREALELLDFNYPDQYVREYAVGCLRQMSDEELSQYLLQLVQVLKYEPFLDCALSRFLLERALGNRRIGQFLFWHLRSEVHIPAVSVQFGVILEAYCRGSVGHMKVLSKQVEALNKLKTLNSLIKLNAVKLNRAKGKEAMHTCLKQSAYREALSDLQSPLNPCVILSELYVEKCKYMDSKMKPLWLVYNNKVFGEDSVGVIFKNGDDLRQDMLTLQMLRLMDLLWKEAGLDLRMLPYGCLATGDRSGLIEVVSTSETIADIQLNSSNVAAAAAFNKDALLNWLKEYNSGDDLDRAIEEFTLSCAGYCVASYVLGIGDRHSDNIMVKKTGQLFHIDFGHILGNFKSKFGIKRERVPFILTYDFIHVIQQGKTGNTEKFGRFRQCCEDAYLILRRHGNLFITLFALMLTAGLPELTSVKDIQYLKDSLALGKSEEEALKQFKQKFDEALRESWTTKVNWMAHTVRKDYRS
Sequence of PI3K β (P27986 whole entry partner): as the sequence (P27986 whole entry partner) above
Sequence of PI3K δ (O00329 whole entry): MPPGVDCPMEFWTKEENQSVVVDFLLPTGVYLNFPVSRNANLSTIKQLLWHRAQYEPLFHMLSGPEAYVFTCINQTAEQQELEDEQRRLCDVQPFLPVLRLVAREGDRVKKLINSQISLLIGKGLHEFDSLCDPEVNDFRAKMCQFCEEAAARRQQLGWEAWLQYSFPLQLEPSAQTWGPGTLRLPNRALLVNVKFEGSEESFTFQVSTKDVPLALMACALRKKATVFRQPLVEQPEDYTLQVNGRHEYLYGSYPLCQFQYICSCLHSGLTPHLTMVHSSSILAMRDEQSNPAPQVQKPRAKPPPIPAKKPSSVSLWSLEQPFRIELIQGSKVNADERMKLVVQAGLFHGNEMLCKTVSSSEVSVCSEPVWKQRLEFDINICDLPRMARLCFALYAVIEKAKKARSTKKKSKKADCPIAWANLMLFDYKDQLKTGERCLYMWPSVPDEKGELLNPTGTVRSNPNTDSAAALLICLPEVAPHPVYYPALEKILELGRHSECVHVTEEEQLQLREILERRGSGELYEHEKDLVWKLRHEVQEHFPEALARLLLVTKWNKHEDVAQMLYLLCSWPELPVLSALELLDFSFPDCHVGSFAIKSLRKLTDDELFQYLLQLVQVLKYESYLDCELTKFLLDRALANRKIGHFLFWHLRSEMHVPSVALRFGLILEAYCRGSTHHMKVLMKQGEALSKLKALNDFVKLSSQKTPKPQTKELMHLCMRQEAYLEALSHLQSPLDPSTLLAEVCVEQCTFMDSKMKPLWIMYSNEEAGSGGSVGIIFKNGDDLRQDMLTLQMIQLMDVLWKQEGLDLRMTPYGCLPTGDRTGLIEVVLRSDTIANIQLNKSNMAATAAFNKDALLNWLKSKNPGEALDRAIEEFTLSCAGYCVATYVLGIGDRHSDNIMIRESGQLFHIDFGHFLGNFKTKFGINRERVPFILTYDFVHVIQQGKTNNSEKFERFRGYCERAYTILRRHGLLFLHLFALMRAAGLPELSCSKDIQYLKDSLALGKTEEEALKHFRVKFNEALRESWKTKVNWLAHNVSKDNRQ
Sequence of PI3K δ (P27986 whole entry partner): as the sequence (P27986 whole entry partner) above

One may read the IC50 as the midpoint of a concentration-inhibition curve. For the compound `C[C@H](NC(=O)c1c(N)nn2cccnc12)c1cc2cccc(C#Cc3ccc(=O)[nH]c3)c2c(=O)n1-c1ccccc1` [Compound 33], the IC50 in test [1] is 0.001 to 0.05 µM.
Same read-out and setting: as for `C[C@H](NC(=O)c1cncc2cccnc12)c1cc2cccc(C#Cc3cnn(C)c3)c2c(=O)n1-c1ccccc1` [Compound 42], the figure is 0.001 to 0.05 µM; as for `C[C@H](NC(=O)c1c(N)nn2cccnc12)c1cc2cccc(C#Cc3cnn(C)c3)c2c(=O)[nH]1` [Compound 44], 0.05 to 0.1 µM.
With `C#Cc1cccc2nc([C@H](C)NC(=O)c3nccnc3N)n(-c3ccccc3)c(=O)c12` [Compound 47], the IC50 in test [2] lay in the range of 1 to 5 µM; in test [3], 0.001 to 0.5 µM; in test [4], 0.001 to 0.5 µM; in test [5], 0.001 to 0.1 µM. The “PI3K δ/PI3K γ IC50 (selectivity)” value in test [5] is reported as “V (V = 0.1 to 1)”.
Consider `C[C@H](NC(=O)c1c(N)nn2cccnc12)c1cc2cccc(C#CC3CCN(C)CC3)c2c(=O)n1-c1ccccc1` [Compound 85], for which the IC50 in test [2] lay within 5 to 10 µM; in test [3], 5 to 10 µM; in test [4], 5 to 10 µM; in test [5], 0.5 to 1 µM. The “PI3K δ/PI3K γ IC50 (selectivity)” value in test [5] is recorded as “X (X = 10 to <50)”.
For the compound `Cc1nnc(C#Cc2cccc3cc([C@H](C)NC(=O)c4c(N)nn5cccnc45)n(-c4ccccc4)c(=O)c23)s1` [Compound 86], the IC50 in test [2] is 5 to 10 µM; in test [3], 1 to 5 µM; in test [4], 1 to 5 µM; in test [5], 0.1 to 0.5 µM. Also, the “PI3K δ/PI3K γ IC50 (selectivity)” value in test [5] was “X (X = 10 to <50)”.
With `C[C@H](NC(=O)c1c(N)nn2cccnc12)c1cc2cccc(/C=C/c3ccccc3)c2c(=O)n1-c1ccccc1` [Compound 87], the IC50 is 5 to 10 µM in test [2], 5 to 10 µM in test [3], 5 to 10 µM in test [4] and > 5 µM in test [5]. The “PI3K δ/PI3K γ IC50 (selectivity)” value in test [5] was “V (V = 0.1 to 1)”.
In the case of `C[C@H](NC(=O)c1c(N)nn2cccnc12)c1cc2cccc(C#Cc3cnn(C)c3)c2c(=O)n1-c1cccc(F)c1` [Compound 93], the IC50 was in the range of 5 to 10 µM in test [2], 5 to 10 µM in test [3], 5 to 10 µM in test [4] and 0.001 to 0.1 µM in test [5]. Besides, the “PI3K δ/PI3K γ IC50 (selectivity)” value in test [5] is given as “Y (Y = 50 to <850)”.
`C[C@H](NC(=O)c1c(N)nn2cccnc12)c1cc2cccc(C#Cc3cnn(C)c3)c2c(=O)n1C` [Compound 94]: the IC50 in test [2] was 1 to 5 µM; in test [3] it was 0.5 to 1 µM; in test [4], 5 to 10 µM; in test [5], 0.1 to 0.5 µM. Besides, the “PI3K δ/PI3K γ IC50 (selectivity)” value in test [5] is reported as “X (X = 10 to <50)”.
For `Cc1cccc(-n2c([C@H](C)NC(=O)c3c(N)nn4cccnc34)cc3cccc(C#Cc4cnn(C)c4)c3c2=O)c1` [Compound 95], in that order: 5 to 10 µM, 5 to 10 µM, 5 to 10 µM, 0.1 to 0.5 µM and “X (X = 10 to <50)”.
For `C[C@H](NC(=O)c1c(N)nn2cccnc12)c1cc2cccc(C#Cc3cnn(C)c3)c2c(=O)n1-c1ccc(F)cc1` [Compound 96], in that order: 1 to 5 µM, 5 to 10 µM, 5 to 10 µM, 0.001 to 0.1 µM and “Y (Y = 50 to <850)”.
The corresponding values for `C[C@H](NC(=O)c1c(N)nn2cccnc12)c1cc2cccc(C#Cc3cnn(C)c3)c2c(=O)n1-c1ccc(F)c(F)c1` [Compound 97] are 5 to 10 µM, 5 to 10 µM, 5 to 10 µM, 0.1 to 0.5 µM and “X (X = 10 to <50)”.
Consider `Cc1ccc(-n2c([C@H](C)NC(=O)c3c(N)nn4cccnc34)cc3cccc(C#Cc4cnn(C)c4)c3c2=O)cc1` [Compound 98], for which the IC50 in test [2] lay within 5 to 10 µM; in test [3] it was 5 to 10 µM; in test [4], 5 to 10 µM; in test [5], 0.1 to 0.5 µM. Moreover, in test [5], the “PI3K δ/PI3K γ IC50 (selectivity)” value was “X (X = 10 to <50)”.
As for `C[C@H](NC(=O)c1c(N)nn2cccnc12)c1cc2cccc(C#Cc3cnn(C)c3)c2c(=O)n1C1CCCCC1` [Compound 99], the IC50 in test [2] fell in the range of 5 to 10 µM; in test [3] it was 5 to 10 µM; in test [4], 5 to 10 µM; in test [5] it was 1 to 5 µM. For the same compound, in test [5], the “PI3K δ/PI3K γ IC50 (selectivity)” value is “X (X = 10 to <50)”.
`CNS(=O)(=O)CCn1c([C@H](C)NC(=O)c2c(N)nn3cccnc23)cc2cccc(C#Cc3cnn(C)c3)c2c1=O` [Compound 100]: the IC50 lay within 1 to 5 µM in test [2], 1 to 5 µM in test [3], 5 to 10 µM in test [4] and 0.001 to 0.1 µM in test [5]. The “PI3K δ/PI3K γ IC50 (selectivity)” value in test [5] is “Y (Y = 50 to <850)”.
In the case of `Cc1ccccc1-n1c([C@H](C)NC(=O)c2c(N)nn3cccnc23)cc2cccc(C#Cc3cnn(C)c3)c2c1=O` [Compound 101], the IC50 in test [2] was in the range of 5 to 10 µM; in test [3] it was 5 to 10 µM; in test [4] it was 5 to 10 µM; in test [5], 0.001 to 0.1 µM. Moreover, the “PI3K δ/PI3K γ IC50 (selectivity)” value in test [5] is given as “Y (Y = 50 to <850)”.
Consider `Cc1ccnc2c(C(=O)N[C@@H](C)c3cc4cccc(C#Cc5cnn(C)c5)c4c(=O)n3-c3ccccc3)c(N)nn12` [Compound 102], for which the IC50 in test [2] is 5 to 10 µM; in test [3], 5 to 10 µM; in test [4] it was 5 to 10 µM; in test [5], 0.1 to 0.5 µM. Besides, in test [5], the “PI3K δ/PI3K γ IC50 (selectivity)” value is recorded as “X (X = 10 to <50)”.
For the compound `CC(C)n1c([C@H](C)NC(=O)c2c(N)nn3cccnc23)cc2cccc(C#Cc3cnn(C)c3)c2c1=O` [Compound 103], the IC50 in test [2] lay within 5 to 10 µM; in test [3], 5 to 10 µM; in test [4], 5 to 10 µM; in test [5], 0.5 to 1 µM. Besides, the “PI3K δ/PI3K γ IC50 (selectivity)” value in test [5] is “X (X = 10 to <50)”.
In the case of `C[C@H](NC(=O)c1c(N)nn2cccnc12)c1cc2cccc(C#Cc3cnn(C)c3)c2c(=O)n1CCS(=O)(=O)N(C)C` [Compound 104], the IC50 in test [2] is 1 to 5 µM; in test [3] it was 1 to 5 µM; in test [4], 5 to 10 µM; in test [5], 0.001 to 0.1 µM. The “PI3K δ/PI3K γ IC50 (selectivity)” value in test [5] is reported as “Y (Y = 50 to <850)”.
For `CC[C@H](NC(=O)c1c(N)nn2cccnc12)c1cc2cccc(C#Cc3cnn(C)c3)c2c(=O)n1-c1ccccc1` [Compound 105], the IC50 in test [2] was in the range of 1 to 5 µM; in test [3], 5 to 10 µM; in test [4], 5 to 10 µM; in test [5], 0.001 to 0.1 µM. The “PI3K δ/PI3K γ IC50 (selectivity)” value in test [5] is “Y (Y = 50 to <850)”.
For `Cc1ccn2nc(N)c(C(=O)N[C@@H](C)c3cc4cccc(C#Cc5cnn(C)c5)c4c(=O)n3-c3ccccc3)c2n1` [Compound 106], the IC50 lay in the range of 5 to 10 µM in test [2], 1 to 5 µM in test [3], 5 to 10 µM in test [4] and 0.001 to 0.1 µM in test [5]. Also, the “PI3K δ/PI3K γ IC50 (selectivity)” value in test [5] is given as “Y (Y = 50 to <850)”.
For `Cn1cc(C#Cc2cccc3cc(CNC(=O)c4c(N)nn5cccnc45)n(-c4ccccc4)c(=O)c23)cn1` [Compound 107], the IC50 in test [2] lay in the range of 5 to 10 µM; in test [3], 5 to 10 µM; in test [4], 5 to 10 µM; in test [5] it was 1 to 5 µM. Further, the “PI3K δ/PI3K γ IC50 (selectivity)” value in test [5] is “X (X = 10 to <50)”.
As for `Cc1cc(C)n2nc(N)c(C(=O)N[C@@H](C)c3cc4cccc(C#Cc5cnn(C)c5)c4c(=O)n3-c3ccccc3)c2n1` [Compound 108], the IC50 was 5 to 10 µM in test [2], 5 to 10 µM in test [3], 5 to 10 µM in test [4] and 0.1 to 0.5 µM in test [5]. In test [5], the “PI3K δ/PI3K γ IC50 (selectivity)” value was “X (X = 10 to <50)”.
